How the values were obtained:
TNKS1 = biological target: T1, TNKS1 (Homo sapiens, UniProt O95271); experiment: PARP profiling activity assay, TNKS1; format: biochemical
T1 sequence (O95271 1-1327): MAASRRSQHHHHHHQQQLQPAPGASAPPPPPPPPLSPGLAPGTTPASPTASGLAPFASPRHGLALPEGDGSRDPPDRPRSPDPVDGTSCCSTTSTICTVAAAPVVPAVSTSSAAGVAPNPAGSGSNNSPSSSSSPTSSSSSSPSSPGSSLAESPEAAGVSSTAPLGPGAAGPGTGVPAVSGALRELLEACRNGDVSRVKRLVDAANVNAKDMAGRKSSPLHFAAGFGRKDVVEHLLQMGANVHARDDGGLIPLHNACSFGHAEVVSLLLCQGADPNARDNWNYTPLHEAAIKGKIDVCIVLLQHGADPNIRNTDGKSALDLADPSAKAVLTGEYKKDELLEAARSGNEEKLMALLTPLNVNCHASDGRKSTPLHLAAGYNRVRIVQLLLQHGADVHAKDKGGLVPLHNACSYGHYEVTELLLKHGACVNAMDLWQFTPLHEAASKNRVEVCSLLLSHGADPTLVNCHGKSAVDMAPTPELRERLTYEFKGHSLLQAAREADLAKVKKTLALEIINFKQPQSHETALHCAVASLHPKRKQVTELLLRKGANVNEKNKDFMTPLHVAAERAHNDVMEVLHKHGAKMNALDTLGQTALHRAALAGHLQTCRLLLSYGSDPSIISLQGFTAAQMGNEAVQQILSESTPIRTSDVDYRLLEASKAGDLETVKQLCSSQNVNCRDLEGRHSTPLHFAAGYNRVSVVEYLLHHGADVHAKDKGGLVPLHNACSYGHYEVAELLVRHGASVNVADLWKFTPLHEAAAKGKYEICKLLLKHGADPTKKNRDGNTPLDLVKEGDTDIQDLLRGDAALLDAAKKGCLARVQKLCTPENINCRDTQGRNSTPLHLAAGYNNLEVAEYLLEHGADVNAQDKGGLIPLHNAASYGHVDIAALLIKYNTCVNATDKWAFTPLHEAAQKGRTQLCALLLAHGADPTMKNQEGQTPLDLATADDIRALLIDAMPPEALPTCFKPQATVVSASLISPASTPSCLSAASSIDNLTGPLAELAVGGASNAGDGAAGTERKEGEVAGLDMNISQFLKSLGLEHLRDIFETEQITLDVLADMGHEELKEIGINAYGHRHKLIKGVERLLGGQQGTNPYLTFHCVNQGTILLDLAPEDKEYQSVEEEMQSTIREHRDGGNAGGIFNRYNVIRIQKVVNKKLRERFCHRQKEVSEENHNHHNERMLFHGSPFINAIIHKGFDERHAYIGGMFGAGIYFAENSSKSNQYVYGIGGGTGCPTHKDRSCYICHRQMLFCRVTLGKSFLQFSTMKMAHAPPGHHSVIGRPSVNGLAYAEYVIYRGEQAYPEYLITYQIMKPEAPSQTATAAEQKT
Procedure: Inhibition experiments were performed using a homogenous assay measuring NAD+ consumption.[80]−[82] Reactions were carried out in quadruplicate, and IC50 curves were fitted using sigmoidal dose response curve (four variables) in GraphPad Prism version 8.02.

PARP10 = biological target: T2, PARP10 (Homo sapiens, UniProt Q53GL7); experiment: Cellular MARylation assay (immunoblot of PARP10 auto-MARylation); format: cell-based; conditions: 10 μM, 16 h, HeLa cells
T2 construct: made in house
T2 sequence (Q53GL7 1-1025): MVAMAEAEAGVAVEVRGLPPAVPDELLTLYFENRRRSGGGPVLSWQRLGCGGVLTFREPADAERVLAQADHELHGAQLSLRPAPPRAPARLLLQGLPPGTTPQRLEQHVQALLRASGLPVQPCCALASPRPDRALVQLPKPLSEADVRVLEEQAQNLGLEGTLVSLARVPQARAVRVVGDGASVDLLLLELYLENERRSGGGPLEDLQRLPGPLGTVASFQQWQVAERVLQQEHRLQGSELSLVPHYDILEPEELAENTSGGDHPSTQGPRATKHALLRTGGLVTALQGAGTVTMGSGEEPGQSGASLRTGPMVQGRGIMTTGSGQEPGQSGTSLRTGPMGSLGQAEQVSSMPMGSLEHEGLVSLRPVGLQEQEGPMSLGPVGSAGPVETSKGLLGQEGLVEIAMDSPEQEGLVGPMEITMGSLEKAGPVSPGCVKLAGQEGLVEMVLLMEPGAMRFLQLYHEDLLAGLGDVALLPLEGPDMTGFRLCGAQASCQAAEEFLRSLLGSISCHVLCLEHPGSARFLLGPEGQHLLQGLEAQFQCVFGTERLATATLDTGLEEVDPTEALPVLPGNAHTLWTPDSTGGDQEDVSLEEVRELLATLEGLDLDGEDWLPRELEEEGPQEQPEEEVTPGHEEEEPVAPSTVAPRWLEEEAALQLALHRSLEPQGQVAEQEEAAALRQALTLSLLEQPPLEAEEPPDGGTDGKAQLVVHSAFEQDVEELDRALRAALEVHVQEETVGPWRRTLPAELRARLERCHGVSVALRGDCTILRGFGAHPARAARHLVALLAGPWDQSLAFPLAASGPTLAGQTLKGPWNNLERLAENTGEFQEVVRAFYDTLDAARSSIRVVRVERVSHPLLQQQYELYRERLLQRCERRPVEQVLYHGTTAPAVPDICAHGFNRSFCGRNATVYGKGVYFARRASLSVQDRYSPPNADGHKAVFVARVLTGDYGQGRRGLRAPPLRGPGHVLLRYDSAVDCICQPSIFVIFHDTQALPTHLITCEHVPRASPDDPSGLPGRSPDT
Procedure: Cells were lysed in RIPA lysis buffer [10 mM Tris pH 7.4; 150 mM NaCl; 1% NP-40; 1% desoxycholate; 0,1% SDS; protease inhibitor cocktail (Sigma-Aldrich) and 10 μM olaparib (Selleck Chemicals)], and lysates were analyzed via SDS-PAGE and immunoblotting using specific anti-PARP10 (Eurogentec),[93] anti-MAR/PAR (Cell Signaling, E6F6A, anti-poly/Mono-ADP-ribose antibody), and anti-α-tubulin (B 5-1-2, Sigma-Aldrich) antibodies.

[1] = Stability in human plasma; format: in vitro ADME; conditions: 37 °C
Procedure: HEPES buffer (0.9 mL, 25 mM, 140 mM NaCl, pH 7.4), and 0.1 mL of each compound in DMSO (2.0 mM). The solution was mixed in a test tube that was incubated at 37 °C. […] The supernatant was removed and analyzed by UV/LC–MS.

Structure (SMILES) | IC50 (TNKS1) [µM] | inhibition of auto-MARylation of overexpressed PARP10 in cells (PARP10) | stab in human plasma [1] [h]
COc1ccc(OC)c2c1sc1nnc(N)n12 [Compound 27, 5,8-Dimethoxy[1,2,4]triazolo[3,4-b][1,3]benzothiazol-3-amine] | 5.4 | effectively inhibited | >24
Cc1ccc2c(c1)sc1nnc(N)n12 [Compound 21, 7-Methyl[1,2,4]triazolo[3,4-b][1,3]benzothiazol-3-amine] | 2.1 | effectively inhibited | >24

Source: PMC9884089 (Journal of Medicinal Chemistry, 2023)
